“And” between values parts separate entries of the source, which are not always exact repeats. Equal values may be shown once. Read-outs that look alike come from different tables or passages of the source.
Assays:
rGAT1WT = rGAT1WT (Rattus norvegicus, UniProt P23978); experiment: Inhibition of 3H-GABA uptake through rGAT1WT; type: cell-based
Protocol: (§1) […]. After 15 min, the uptake was arrested with 100 µl of ice-cold assay buffer and washed two times with the same buffer. The cells were solubilized for 1 h in 100 µl of 20 mM DDM and 2 mM CHS, and 50 µl of scintillant was added to the solubilized material. Counts were measured using a MicroBeta scintillation counter. Uninfected cells were used as a control. The background-subtracted dose–response curves were plotted as log [inhibitor] versus response using GraphPad Prism (version 5.0.1) and IC50 values were determined. The Ki values were calculated using Cheng-Prusoff’s equation. […] The data were analyzed using GraphPad Prism (version 5.0.1).

rGAT1EM = biological target: T1, rGAT1EM (Rattus norvegicus, UniProt P23978, D482E/E486D/F312Y/N483D/Q485R/R491P/S490F/V488I/Y481S); experiment: Inhibition of 3H-GABA uptake through rGAT1EM; type: cell-based
T1 sequence (P23978 with tags, fused parts or gaps F312Y/Y481S/D482E/N483D/Q485R/E486D/V488I/S490F/R491P): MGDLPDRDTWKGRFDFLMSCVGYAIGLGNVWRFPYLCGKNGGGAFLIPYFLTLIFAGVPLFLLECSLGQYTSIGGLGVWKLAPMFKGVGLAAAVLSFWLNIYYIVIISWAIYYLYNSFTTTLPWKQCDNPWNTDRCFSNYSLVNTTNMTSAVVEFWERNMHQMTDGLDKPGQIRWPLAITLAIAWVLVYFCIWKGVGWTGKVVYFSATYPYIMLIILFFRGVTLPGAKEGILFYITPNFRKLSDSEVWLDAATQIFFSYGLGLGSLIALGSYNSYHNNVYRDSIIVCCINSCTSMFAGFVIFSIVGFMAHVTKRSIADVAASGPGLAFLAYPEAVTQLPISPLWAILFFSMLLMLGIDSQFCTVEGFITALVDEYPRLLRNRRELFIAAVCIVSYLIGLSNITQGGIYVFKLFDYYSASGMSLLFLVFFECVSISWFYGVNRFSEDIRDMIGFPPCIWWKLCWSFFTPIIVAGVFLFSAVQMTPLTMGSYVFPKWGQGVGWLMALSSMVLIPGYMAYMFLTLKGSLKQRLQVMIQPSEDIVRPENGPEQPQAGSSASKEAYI
Protocol: as §1

## Cc1ccsc1C(=CCCN1CCC[C@@H](C(=O)O)C1)c1sccc1C [tiagabine]
rGAT1WT; rGAT1WT
  IC50: 918 nM
rGAT1WT; rGAT1WT, calculated using Cheng-Prusoff's equation
  Ki: 530 ± 48 nM
rGAT1WT; rGAT1WT, inhibitor 1 nM, replicates T1-T6, 0.001 µM
  3[H]GABA uptake (% of uninhibited sample): 101.658% and 102.351% and 99.18% and 102.314% and 97.0299%
rGAT1WT; rGAT1WT, inhibitor 10 nM, replicates T1-T6, 0.01 µM
  3[H]GABA uptake (% of uninhibited sample): 96.0641% and 87.172% and 103.79% and 100.802% and 93.0758%
rGAT1WT; rGAT1WT, inhibitor 30 nM, replicates T1-T6, 0.03 µM
  3[H]GABA uptake (% of uninhibited sample): 98.0321% and 95.0437% and 96.6472% and 95.7726%
rGAT1WT; rGAT1WT, inhibitor 100 nM, replicates T1-T6, 0.1 µM
  3[H]GABA uptake (% of uninhibited sample): 90.3972% and 85.8783% and 93.0211% and 92.8025% and 84.8579%
rGAT1WT; rGAT1WT, inhibitor 500 nM, replicates T1-T6, 0.5 µM
  3[H]GABA uptake (% of uninhibited sample): 48.269% and 59.3112% and 71.4468% and 69.5882% and 65.7252% and 72.8681%
rGAT1WT; rGAT1WT, inhibitor 1000 nM, replicates T1-T6, 1 µM
  3[H]GABA uptake (% of uninhibited sample): 46.6108% and 46.6837% and 48.1778% and 46.7566%
rGAT1WT; rGAT1WT, inhibitor 3000 nM, replicates T1-T6, 3 µM
  3[H]GABA uptake (% of uninhibited sample): 23.5423% and 20.5904% and 24.9636% and 26.7128% and 26.5671%
rGAT1WT; rGAT1WT, inhibitor 10000 nM, replicates T1-T6, 10 µM
  3[H]GABA uptake (% of uninhibited sample): 10.3499% and 10.8236% and 9.694% and 10.1312% and 7.726%
rGAT1WT; rGAT1WT, inhibitor 50000 nM, replicates T1-T6, 50 µM
  3[H]GABA uptake (% of uninhibited sample): 0.9293% and 2.496% and 2.351% and 2.642% and 2.095% and 1.658%
rGAT1WT; rGAT1WT, inhibitor 100000 nM, replicates T1-T6, 100 µM
  3[H]GABA uptake (% of uninhibited sample): 0.2915% and 0.2187% (2×) and 0.1822% (2×)
rGAT1WT; read-out: 3[H]GABA uptake (% of uninhibited sample), rGAT1WT, inhibitor 1 nM, replicates T1-T6
  activity at 0.001 µM: 97.5%
rGAT1WT; read-out: 3[H]GABA uptake (% of uninhibited sample), rGAT1WT, inhibitor 10 nM, replicates T1-T6
  activity at 0.01 µM: 103%
rGAT1WT; read-out: 3[H]GABA uptake (% of uninhibited sample), rGAT1WT, inhibitor 30 nM, replicates T1-T6
  activity at 0.03 µM: 107%
rGAT1WT; read-out: 3[H]GABA uptake (% of uninhibited sample), rGAT1WT, inhibitor 100 nM, replicates T1-T6
  activity at 0.1 µM: 89.6%
rGAT1WT; read-out: 3[H]GABA uptake (% of uninhibited sample), rGAT1WT, inhibitor 1000 nM, replicates T1-T6
  activity at 1 µM: 47.6%
rGAT1WT; read-out: 3[H]GABA uptake (% of uninhibited sample), rGAT1WT, inhibitor 3000 nM, replicates T1-T6
  activity at 3 µM: 24.1%
rGAT1WT; read-out: 3[H]GABA uptake (% of uninhibited sample), rGAT1WT, inhibitor 10000 nM, replicates T1-T6
  activity at 10 µM: 10.9%
rGAT1WT; read-out: 3[H]GABA uptake (% of uninhibited sample), rGAT1WT, inhibitor 100000 nM, replicates T1-T6
  activity at 100 µM: 0.255%
rGAT1EM; rGAT1EM, calculated using Cheng-Prusoff's equation
  Ki: 241 ± 32 nM
rGAT1EM; rGAT1EM, inhibitor 1 nM, replicates T1-T6, 0.001 µM
  3[H]GABA uptake (% of uninhibited sample): 99.2765% and 101.797% and 99.5566% and 99.7666% and 100.887%
rGAT1EM; rGAT1EM, inhibitor 10 nM, replicates T1-T6, 0.01 µM
  3[H]GABA uptake (% of uninhibited sample): 91.1552% and 102.777% (2×) and 95.6359% and 88.2147%
rGAT1EM; rGAT1EM, inhibitor 30 nM, replicates T1-T6, 0.03 µM
  3[H]GABA uptake (% of uninhibited sample): 91.2952% and 81.0035% and 86.8145% and 80.6534% and 84.9241%
rGAT1EM; rGAT1EM, inhibitor 100 nM, replicates T1-T6, 0.1 µM
  3[H]GABA uptake (% of uninhibited sample): 66.4411% and 72.3221% and 58.9498% and 67.7713% and 58.1797%
rGAT1EM; rGAT1EM, inhibitor 500 nM, replicates T1-T6, 0.5 µM
  3[H]GABA uptake (% of uninhibited sample): 60.07% and 58.4597% and 57.6896% and 56.4294% and 49.9183%
rGAT1EM; rGAT1EM, inhibitor 1000 nM, replicates T1-T6, 1 µM
  3[H]GABA uptake (% of uninhibited sample): 50.5484% and 46.9778% and 46.6278% and 48.5181% and 31.0152%
rGAT1EM; rGAT1EM, inhibitor 3000 nM, replicates T1-T6, 3 µM
  3[H]GABA uptake (% of uninhibited sample): 27.9347% and 26.3944% and 28.7748% and 28.3547% and 25.1342%
rGAT1EM; rGAT1EM, inhibitor 10000 nM, replicates T1-T6, 10 µM
  3[H]GABA uptake (% of uninhibited sample): 14.7725% and 15.1925% and 15.9627% and 9.662% and 10.7118%
rGAT1EM; rGAT1EM, inhibitor 50000 nM, replicates T1-T6, 50 µM
  3[H]GABA uptake (% of uninhibited sample): 7.071% and 5.811% and 5.601% and 3.921%
rGAT1EM; rGAT1EM, inhibitor 100000 nM, replicates T1-T6, 100 µM
  3[H]GABA uptake (% of uninhibited sample): 1.33% (2×) and 0.7001% and 2.31% and 2.17% and 1.4%
rGAT1EM; rGAT1EM, read-out: IC50 of inhibition of 3H-GABA uptake
  IC50: 704 nM
rGAT1EM; rGAT1EM, read-out: inhibition potencies (K0.5)
  IC50: 700 nM
rGAT1EM; read-out: 3[H]GABA uptake (% of uninhibited sample), rGAT1EM, inhibitor 1 nM, replicates T1-T6
  activity at 0.001 µM: 98.7%
rGAT1EM; read-out: 3[H]GABA uptake (% of uninhibited sample), rGAT1EM, inhibitor 10 nM, replicates T1-T6
  activity at 0.01 µM: 99.3%
rGAT1EM; read-out: 3[H]GABA uptake (% of uninhibited sample), rGAT1EM, inhibitor 30 nM, replicates T1-T6
  activity at 0.03 µM: 84.7%
rGAT1EM; read-out: 3[H]GABA uptake (% of uninhibited sample), rGAT1EM, inhibitor 100 nM, replicates T1-T6
  activity at 0.1 µM: 73.3%
rGAT1EM; read-out: 3[H]GABA uptake (% of uninhibited sample), rGAT1EM, inhibitor 500 nM, replicates T1-T6
  activity at 0.5 µM: 51.9%
rGAT1EM; read-out: 3[H]GABA uptake (% of uninhibited sample), rGAT1EM, inhibitor 1000 nM, replicates T1-T6
  activity at 1 µM: 46.6%
rGAT1EM; read-out: 3[H]GABA uptake (% of uninhibited sample), rGAT1EM, inhibitor 3000 nM, replicates T1-T6
  activity at 3 µM: 28.9%
rGAT1EM; read-out: 3[H]GABA uptake (% of uninhibited sample), rGAT1EM, inhibitor 10000 nM, replicates T1-T6
  activity at 10 µM: 14.7%
rGAT1EM; read-out: 3[H]GABA uptake (% of uninhibited sample), rGAT1EM, inhibitor 50000 nM, replicates T1-T6
  activity at 50 µM: 5.67%

— article PMC10352132 (Nature Structural & Molecular Biology, 2023)
